Reference: patent US5811398A, “Platelet aggregation inhibitors containing C-terminal aminergic side chain amino acid residues” (G. D. Searle & Co., priority 1995, dated 1998)

System: ADP-induced platelet aggregation in dog platelet-rich plasma (PRP)
Test: In-Vitro Platelet Aggregation in PRP
Assay type: cell-based
Conditions: aggregation induced by ADP (50 μm final concentration), 1 minute preincubation at 37° C.
Experimental: In-Vitro Platelet Aggregation in PRP
Healthy male or female dogs were fasted for 8 hours prior to drawing blood; then 30 ml whole blood was collected using a butterfly needle and 30 cc plastic syringe with 3 ml of 0.129M buffered sodium citrate (3.8%). The syringe was rotated carefully as blood was drawn to mix the citrate. Platelet-rich plasma (PRP) was prepared by centrifugation at 975×g for 3.17 minutes at room temperature, allowing the centrifuge to coast to a stop without braking. The PRP was removed from the blood with a plastic pipette and placed in a plastic capped, 50 ml Corning conical sterile centrifuge tube which was held at room temperature. Platelet poor plasma (PPP) was prepared by centrifuging the remaining blood at 2000×g for 15 minutes at room temperature allowing the centrifuge to coast to a stop without braking. The PRP was adjusted with PPP to a count of 2-3×10^8 platelets per ml. 400 μl of the PRP preparation and 50 μl of the compound to be tested or saline were preincubated for 1 minute at 37° C. in a BioData aggregometer (BioData, Horsham, Pa.). 50 μl of adenosine 5'-diphosphate (ADP) (50 μm final concentration) was added to the cuvettes and the aggregation was monitored for 1 minute. […] Results are calculated as follows: [formula]
The assay results for the compound of Example 1 and its median inhibitory concentration (IC50) is recorded in Table I.

N=C(N)c1ccc(NC(=O)CCC(=O)N[C@@H](CC(=O)O)C(=O)N[C@@H](CCCCN)C(=O)O)cc1 [Example 1, N-[4-[[4-(aminoiminomethyl)phenyl]amino]-1,4-dioxobutyl]-L-aspartyl]-L-lysine bistrifluoroacetate]
IC50: 180 nM
